Assay results as given in US9750844B2, “Composition for use in wound healing in burns” (ACADEMIA SINICA, priority 2014, dated 2017).
Entries after “also recorded” stand apart in the source; their conditions may differ.

Columns and labels:
MRSA [1] = assay: MRSA-infected full-thickness skin excision wound in mice: survival, wound closure, angiogenesis; format: in vivo, Balb/C mice; conditions: for survival of infected mice: wound infected with 10^6 CFU MRSA, topical treatment
Procedure: Six to eight week old Balb/C male mice were used for the examples. MRSA culture and quantification were carried out, and suspensions were serially diluted and spread onto LB-agar plates in duplicate for 24 hours. After the incubation period, colony forming units (CFU) were counted, averaged, and expressed as CFU/ml. All animal handing procedures were in accordance with National Taiwan Ocean University (NTOU) guidelines. All procedures were approved by the Animal Care and Use Committee of NTOU.
The mice were housed individually to prevent fighting and further damage to the wounds, and were given ad libitum access to food and water. The mice were maintained under 12 h/12 h light/dark cycle at a room temperature, and adapted to the environment for at least a week before used in the experiments. Each mouse's hair was removed from the back by shaving, and a full-thickness excisional wound (1 cm in diameter) was created on the back of the mice.
(§1) Each wound was inoculated with 50 μl of broth mix containing 10^6 CFU of the indicated microorganism. The wounds were treated with the antimicrobial peptide according to the invention and collagen at 5 min after inoculation. At 30 min after treatment, wounds were covered with Tegaderm to maintain uniformity and to prevent the loss of the materials as treated. The wounds were examined at Day 3, 7, and 14 after the wounds were created, and the non-contaminated wounds were examined every other day. The wounds were examined to assess the transitions from inflammatory to regenerative and regenerative to resolving phases of the wound healing. At the end of the examination period, the animals were euthanized by CO2 inhalation and the wounds were assessed. For each experiment, four individuals were examined in each group at each time point. Each wound was measured and then removed from the animal, with unwounded skin taken from the contralateral abdomen as a control.
Tracings were taken immediately after injury. For uncontaminated wounds, wound size was determined every second day. For contaminated wounds, mice were euthanized at Day 3, 7, 14, or 17, and tracings of the wound edges were made. Wound areas were determined using the Macintosh Adobe Photoshop program and histological examination. The percentage of wound contraction was calculated as follows: % Wound contraction=(A0−At)/A0×100%
where A0 is the area of the original wound, and At is the area of the wound on Day 3, 7, 14, and 17.
Multidrug-resistant strains of Staphylococcus aureus (MRSA) commonly associated with human wound infections were selected to generate a polymicrobial solution. The initial inoculum was prepared by culturing aerobic bacteria in Tryptic Soy Broth (TSB) overnight at 37° C. Broths were subsequently centrifuged at 1000 rpm for 15 min, and resuspended in TSB with 15% glycerol, or chopped meat extract with 15% glycerol (for aerobic bacteria). The concentration was adjusted to 10^6 cfu/50 μl, and stored at −80° C. Prior to wound application, the bacterial stocks were re-mixed. Microbial load was determined by direct plating, followed by freeze-thaw and cfu enumeration, in parallel with inoculations. The inoculum was delivered by sterile pipettes to the center of open wounds. After euthanization (at Day 0, 3, 7, 14, or 17), two bisected tissue segments were used to determine microbial load using the protocol for human wound biopsy culture, as stated in the UPMC Clinical Microbiology Laboratory Procedure Manual. Tissue biopsies were weighed and placed in 1.5 ml of TSB, and then homogenized in a tissue grinder. A single drop of the homogenate was placed on the slide and Gram stained for rough assessment (if one or more bacteria are present within the oil immersion field, the expected count in the tissue is at least 10^5 cfu/g). Serial dilutions (1:10 (0.1+0.9)) of the tissue homogenate were made using distilled water. The cfu/g of tissue was calculated as follows: cfu/g=plate count (1/dilution)×10/wt. of homogenized tissue. […]

MCP-1, IL-6, TNF = assay: Serum cytokine/chemokine ELISA in MRSA-infected wounded mice; format: in vivo, Balb/C mice; conditions: Epi-1 study, 24 h post-treatment
Text: (§2) Elisa kits for […] (Cat no. 555260, BD Biosciences, CA, USA), IL-6 (Cat no. 555240, BD Biosciences, CA, USA), and TNF (Cat no. 558534, BD Biosciences, CA, USA) were used to determine cytokine levels. Antibodies against macrophages (Cat no. 550282, BD Biosciences, CA, USA), monocytes (Cat no. 101301, BioLegend, London, UK), and VEGF (Cat no. 550549, BD Biosciences, CA, USA) were used for immunohistochemistry (IHC). Fish scale collagen peptides (FSCPs) were isolated from tilapia (Oreochromis sp.) by the Seafood Technology Division, Fisheries Research Institute, Council of Agriculture, Taiwan.
as §1

MRSA [2] = assay: Assessment of wound infection: bacterial load (CFU) and Gram staining of wound tissue; format: in vivo, Balb/C mice; conditions: for Gram staining of MRSA / Gram-positive microorganisms in wound sections: Day 3 after inoculation
Procedure: Tissue samples were homogenized in PBS. Serially diluted aliquots of homogenate were cultured on Luria-Bertani agar after incubation for 18 h at 37° C., and cfu/g tissue were subsequently calculated. A stable wound infection was defined as 10^6 cfu/g tissue.
(§3) Full-thickness tissue was harvested for microbial and histological analysis. Samples from each experiment were fixed in 4% buffered paraformaldehyde. Tissue samples were stained with hematoxylin/eosin or Giemsa, and immunohistochemistry (IHC) was analyzed by three independent investigators. Images were taken with a BX-51 microscope (Olympus, Japan).
Multidrug-resistant strains of Staphylococcus aureus (MRSA) commonly associated with human wound infections were selected to generate a polymicrobial solution. The initial inoculum was prepared by culturing aerobic bacteria in Tryptic Soy Broth (TSB) overnight at 37° C. Broths were subsequently centrifuged at 1000 rpm for 15 min, and resuspended in TSB with 15% glycerol, or chopped meat extract with 15% glycerol (for aerobic bacteria). […] Prior to wound application, the bacterial stocks were re-mixed. Microbial load was determined by direct plating, followed by freeze-thaw and cfu enumeration, in parallel with inoculations. The inoculum was delivered by sterile pipettes to the center of open wounds. After euthanization (at Day 0, 3, 7, 14, or 17), two bisected tissue segments were used to determine microbial load using the protocol for human wound biopsy culture, as stated in the UPMC Clinical Microbiology Laboratory Procedure Manual. Tissue biopsies were weighed and placed in 1.5 ml of TSB, and then homogenized in a tissue grinder. A single drop of the homogenate was placed on the slide and Gram stained for rough assessment (if one or more bacteria are present within the oil immersion field, the expected count in the tissue is at least 10^5 cfu/g). Serial dilutions (1:10 (0.1+0.9)) of the tissue homogenate were made using distilled water. The cfu/g of tissue was calculated as follows: cfu/g=plate count (1/dilution)×10/wt. of homogenized tissue.

[3] = test system: monocytes, macrophages, VEGF; assay: Histology (H&E, Giemsa) and immunohistochemistry of wound tissue; format: in vivo, Balb/C mice
Text: as §2, §3

MRSA [4] = assay: Antimicrobial MIC/MBC assay against MRSA in vitro; format: cell-based, Staphylococcus aureus; conditions: bacterial proliferation by optical density at 600 nm
Procedure: Minimum inhibitory concentration (MIC) and minimum bactericidal concentration (MBC) antimicrobial assays were performed. For MIC assessment, the antimicrobial peptide, Epi-1, was diluted to final concentrations of […], or 0.78 μg/ml. Twenty microliters of each dilution were mixed in a microtiter plate well with […] of the appropriate bacterial indicator suspension, and 160 μl of Trypticase Soy Broth (TSB) for S. aureus, to a total volume of 200 μl. Three replicates were examined for each S. aureus strain, compound, and concentration. Positive controls contained water instead of compounds, and negative controls contained compounds without bacterial suspensions. Microbial growth was automatically determined by optical density measurement at 600 nm (Bioscreen C, Labsystem, Helsinki, Finland). Microplates were incubated at 25° C. for plant pathogens and at 37° C. for food-borne bacterial strains. Absorbance readings were taken at hourly intervals over a 48 h period. Plates were shaken for 20 seconds before each measurement. The experiment was repeated twice.

| Compound | wound closure time (MRSA [1]; contaminated wounds, GE33 study (FIG. 8B)) | survival of infected mice (MRSA [1]) | induction of IL-6 in serum (MCP-1, IL-6, TNF) | induction of TNF-α in serum (MCP-1, IL-6, TNF) | Gram staining of MRSA / Gram-positive microorganisms in wound sections (MRSA [2]) | wound flora at Day 3 (MRSA [2]; initial inoculum approximately 10^4 cfu/10 μl) | healing and re-epithelialization of excision region (MRSA [1]; wound infected with 10^6 cfu MRSA, 3, 7, 14 days) | overall epidermal maturation, keratinization and regeneration of the epithelium ([3]; histology of wounds) | colony counts between Days 7 and 17 (MRSA [2]; MRSA-contaminated wounds) | antibacterial efficacy against MRSA in vitro (MRSA [4]) | wound closure (MRSA [1]; MRSA-infected wound, compared to vancomycin-treated mice and control mice) | new blood vessel formation (angiogenesis) (MRSA [1]; MRSA-infected wounded skin, light microscopy) | IHC staining of VEGF ([3]; infected wound, Day 3) | IHC staining/infiltration of macrophages ([3]; infected wound, Day 3) | IHC staining/infiltration of monocytes ([3]; infected wound, Day 3) | accumulation/recruitment of monocytes (Giemsa staining) ([3]; wounded area tissue sections, MRSA-infected) | MCP-1 induction by MRSA in serum (MCP-1, IL-6, TNF) | MRSA CFU in cultured injured skin sections (MRSA [2]; 24 h after treatment, compared to the control) | bacterial counts in cultured skin sections (CFU) (MRSA [2]; MRSA-infected mice, compared with vancomycin) |
| --- | --- | --- | --- | --- | --- | --- | --- | --- | --- | --- | --- | --- | --- | --- | --- | --- | --- | --- | --- |
| COc1cccc(OC)c1C(=O)N[C@@H]1C(=O)N2[C@@H]1SC(C)(C)[C@@H]2C(=O)O [methicillin] | lack of closure | died within four days | unaffected | unaffected | completely abolished | about 10^8 cfu/10 μl |  |  |  |  |  |  |  |  |  |  |  |  |  |
| CN[C@H](CC(C)C)C(=O)N[C@H]1C(=O)N[C@@H](CC(N)=O)C(=O)N[C@H]2C(=O)N[C@H]3C(=O)N[C@H](C(=O)N[C@H](C(=O)O)c4cc(O)cc(O)c4-c4cc3ccc4O)[C@H](O)c3ccc(c(Cl)c3)Oc3cc2cc(c3O[C@@H]2O[C@H](CO)[C@@H](O)[C@H](O)[C@H]2O[C@H]2C[C@](C)(N)[C@H](O)[C@H](C)O2)Oc2ccc(cc2Cl)[C@H]1O [vancomycin] |  | survived | significantly decreased | significantly decreased |  |  | re-epithelialization observed | impairment in overall epidermal maturation | decreased |  |  |  |  |  |  |  |  |  |  |
| Epinecidin-1 (GFIFHIIKGLFHAGKMIHGLV; grouper) [Epi-1] |  |  | significantly decreased | significantly decreased | completely abolished; also recorded: more efficient at attenuating MRSA infection than vancomycin |  |  |  |  | good antibacterial efficacy | faster | more prominent | clearly reduced | clearly reduced | clearly reduced | reduced their recruitment | decreased | significantly reduced | significantly lower |
